Drawing on patent US6849653B2, “Substituted pyrazolyl benzenesulfamide compounds for the treatment of inflammation” (Pharmacia Corporation, priority 2001, dated 2005), this text covers IC50 for 15 molecules.

Structures can show the parent of a compound that is named as a salt.

The first test concerns the target T1, IKK2 (IKKβ), rhIKK2 homodimer (Homo sapiens, UniProt O14920).
T1 construct: made in house; host or cells: insect cells (baculovirus; SF9)
T1 sequence (O14920 1-756): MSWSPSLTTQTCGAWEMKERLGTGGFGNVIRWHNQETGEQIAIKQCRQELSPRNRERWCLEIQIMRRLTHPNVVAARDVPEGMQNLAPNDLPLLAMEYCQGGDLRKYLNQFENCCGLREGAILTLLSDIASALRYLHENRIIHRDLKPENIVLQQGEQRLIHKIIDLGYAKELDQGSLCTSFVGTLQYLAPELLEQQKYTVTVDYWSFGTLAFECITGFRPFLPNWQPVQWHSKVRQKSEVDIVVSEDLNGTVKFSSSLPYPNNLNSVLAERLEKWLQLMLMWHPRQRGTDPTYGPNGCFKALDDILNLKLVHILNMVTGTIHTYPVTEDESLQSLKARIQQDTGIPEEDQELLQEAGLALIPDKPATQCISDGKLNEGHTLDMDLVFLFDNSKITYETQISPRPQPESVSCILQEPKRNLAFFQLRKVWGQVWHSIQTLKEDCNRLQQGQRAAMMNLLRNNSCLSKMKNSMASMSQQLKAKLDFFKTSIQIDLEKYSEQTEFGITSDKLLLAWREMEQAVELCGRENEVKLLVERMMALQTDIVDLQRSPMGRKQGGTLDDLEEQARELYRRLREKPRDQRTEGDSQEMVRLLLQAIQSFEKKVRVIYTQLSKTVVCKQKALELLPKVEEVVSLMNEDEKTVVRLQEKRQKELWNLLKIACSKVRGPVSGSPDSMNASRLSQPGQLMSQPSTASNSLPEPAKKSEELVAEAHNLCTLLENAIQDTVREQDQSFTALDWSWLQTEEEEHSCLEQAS
Kind of test: IKKβ (IKK2) Resin Enzyme Assay. Type of test: biochemical. Conditions: Table 2; values given as bins; read-out: IKK2 Resin IC 50. An excerpt: cDNAs of human IKK1 and IKK2 were amplified by reverse transcriptase-polymerase chain reaction from human placental RNA (Clonetech). hIKK1 was subcloned into pFastBac HTa (Life Technologies) and expressed as N-terminal His6-tagged fusion protein. The hIKK2 cDNA was amplified using a reverse oligonucleotide primer which incorporated the peptide sequence for a FLAG-epitope tag at the C-terminus of the IKK2 coding region (DYKDDDDKD). The hIKK2:FLAG cDNA was subcloned into the baculovirus vector pFastBac. The rhIKK2 ([…]) mutant was constructed in the same vector used for wild type rhIKK2 using a QuikChange™ mutagenesis kit (Stratagene). Viral stocks of each construct were used to infect insect cells grown in 40L suspension culture. […] Cell lysates were stored at −80° C. until purification of the recombinant proteins was undertaken as described below.
Isolation of rhIKK2 Homodimer
A 10 liter culture of baculovirus-expressing IKK2 tagged with FLAG peptide was centrifuged and the cell pellet (MOI=0.1 and I=72 hrs) was re-suspended in buffer A. These cells were microfluidized, and centrifuged at 100,000×g for 45 min. Supernatant was passed over a G-25 column equilibrated with Buffer A. Protein peak was collected and incubated with anti-FLAG affinity resin on a rotator overnight in buffer B. The resin was washed in batch with 10-15 bed volumes of buffer C. Washed resin was poured into a column and rhIKK2 homodimer was eluted using 5 bed volumes of buffer B containing FLAG peptide. 5 mM DTT, 0.1% NP-40 and BSA (concentrated to 0.1% in final amount) was added to the eluted enzyme before concentrating in using an Amicon membrane with a molecular weight cut-off of 30 kDa. Enzyme was aliquoted and stored at −80° C.
IKKβ kinase activity was measured using a biotinylated IκBα peptide (Gly-Leu-Lys-Lys-Glu-Arg-Leu-Leu-Asp-Asp-Arg-His-Asp-Ser32-Gly-Leu-Asp-Ser36-Met-Lys-Asp-Glu-Glu) (American Peptide Co.). […] contained 5 μM biotinylated IκBα peptide, 0.1 μCi/reaction [γ-^33P] ATP (Amersham) (about 1×10^5 cpm), 1 μM ATP (Sigma), 1 mM DTT (Sigma), 2 mM MgCl2 (Sigma), 2 mM MnCl2 (Sigma), 10 mM NaF (Sigma), 25 mM Hepes (Sigma) buffer, pH 7.6 and 20 μl enzyme solution and […] inhibitor in a final volume of 50 μl. After incubation at 25° C. for 30 min, 150 μl resin (Dowex anion-exchange resin AG1X8 200-400 mesh) in 900 mM formate, pH 3.0 was added to each well to stop the reaction. Resin was allowed to settle for one hour and 50 ul of supernatant was removed to a Micolite-2 flat bottom plate (Dynex). 150 μl of scintillation fluid (Microscint 40) (Packard) was added to each well. Incorporation of [γ-^33P] ATP was measured using a Top-Count NXT (Packard).
Regarding `Cc1ccccc1C(=O)Nc1ccc2ccc3c(C(N)=O)nn(-c4ccc(S(C)(=O)=O)cc4)c3c2c1` [Example 38, 8-[(2-methylbenzoyl)amino]-1-[4-(methylsulfonyl)phenyl]-1H-benzo[g]indazole-3-carboxamide], the IC50 was not above 1000 nM.

Turning to `CS(=O)(=O)c1ccc(-n2nc(C(N)=O)c3ccc4ccc(NC(=O)c5cccc(Cl)c5Cl)cc4c32)cc1` [Example 40, 8-[(2,3-dichlorobenzoyl)amino]-1-[4-(methylsulfonyl)phenyl]-1H-benzo[g]indazole-3-carboxamide], the IC50 is not above 1000 nM.

As for `CS(=O)(=O)c1ccc(-n2nc(C(N)=O)c3ccc4ccc(NC(=O)c5ccccc5F)cc4c32)cc1` [Example 42, 8-[(2-fluorobenzoyl)amino]-1-[4-(methylsulfonyl)phenyl]-1H-benzo[g]indazole-3-carboxamide], the IC50 lay in the range of 1000 to 10000 nM.

As for `CS(=O)(=O)c1ccc(-n2nc(C(N)=O)c3ccc4ccc(NC(=O)c5ccccc5C(F)(F)F)cc4c32)cc1` [Example 39, 1-[4-(methylsulfonyl)phenyl]-8-{[2-(trifluoromethyl)benzoyl]amino}-1H-benzo[g]indazole-3-carboxamide], the IC50 lay within 1000 to 10000 nM.

The same test, now with this note: Table 3; read-out: IKK2 Resin IC 50.
Take `NC(=O)c1nn(-c2ccc(F)cc2)c2c1ccc1ccc(NC(=O)c3cccnc3Cl)cc12` [Example 51, 8-{[(2-chloropyridin-3-yl)carbonyl]amino}-1-(4-fluorophenyl)-1H-benzo[g]indazole-3-carboxamide]: the IC50 was not above 1000 nM.

`NC(=O)c1nn(-c2ccc(F)cc2)c2c1ccc1ccc(NC(=O)c3ccncc3Cl)cc12` [Example 43, 8-[(3-chloroisonicotinoyl)amino]-1-(4-fluorophenyl)-1H-benzo[g]indazole-3-carboxamide]: the IC50 was not above 1000 nM.

For the molecule `NC(=O)c1nn(-c2ccc(F)cc2)c2c1cc(Br)c1ccc(NC(=O)c3ccncc3Cl)cc12` [Example 44], the IC50 is not above 1000 nM.

On to `NC(=O)c1nn(-c2ccc(F)cc2)c2c1ccc1ccc(NC(=O)c3ccccc3Cl)cc12` [Example 47, 8-[(2-chlorobenzoyl)amino]-1-(4-fluorophenyl)-1H-benzo[g]indazole-3-carboxamide], for which the IC50 was 1000 to 10000 nM.

On to `NC(=O)c1nn(-c2ccc(F)cc2F)c2c1ccc1ccc(NC(=O)c3cccnc3Cl)cc12` [Example 52, 8-{[(2-chloropyridin-3-yl)carbonyl]amino}-1-(2,4-difluorophenyl)-1H-benzo[g]indazole-3-carboxamide], for which the IC50 is not above 1000 nM.

As for `NC(=O)c1nn(-c2ccc(F)cc2)c2c1ccc1ccc(N)cc12` [Example 46, 8-amino-1-(4-fluorophenyl)-1H-benzo[g]indazole-3-carboxamide], the IC50 lay within 10000 to 100000 nM.

Consider `NC(=O)c1nn(-c2ccc(F)cc2)c2c1cc(-c1cccnc1)c1ccc(NC(=O)c3ccncc3Cl)cc12` [Example 45, 8-[(3-chloroisonicotinoyl(amino]-1-(4-fluorophenyl)-5-pyridin-3-yl-1H-benzo[g]indazole-3-carboxamidedihydrochloride], for which the IC50 was in the range of 1000 to 10000 nM.

Still in this test, the particulars now being: Table 4; values given as bins; read-out: IKK2 Resin IC 50.
`NC(=O)c1nn(-c2ccc3c(c2)OCO3)c2c1cc(Br)c1ccc(NC(=O)c3cccnc3Cl)cc12` [Example 57, 1-(1,3-benzodioxol-5-yl)-5-bromo-8-{[(2-chloropyridin-3-yl)carbonyl]amino}-1H-benzo[g]indazole-3-carboxamide]: the IC50 is not above 1000 nM.

With `NC(=O)c1nn(-c2ccc3c(c2)OCO3)c2c1ccc1ccc(NC(=O)c3ccccc3Cl)cc12` [Example 54, 1-(1,3-benzodioxol-5-yl)-8-[(2-chlorobenzoyl)amino]-1H-benzo[g]indazole-3-carboxamide], the IC50 is not above 1000 nM.

Turning to `NC(=O)c1nn(-c2ccc3c(c2)OCO3)c2c1ccc1ccc(N)cc12` [Example 56, 8-amino-1-(1,3-benzodioxol-5-yl)-1H-benzo[g]indazole-3-carboxamide], the IC50 lay within 1000 to 10000 nM.

In the case of `NC(=O)c1nn(-c2ccc3c(c2)OCO3)c2c1ccc1ccc(NC(=O)c3ccncc3Cl)cc12` [Example 58, 1-(1,3-benzodioxol-5-yl)-8-[(3-chloroisonicotinoyl)amino]-1H-benzo[g]indazole-3-carboxamide], the IC50 was not above 1000 nM.
